Measurements taken from ChEMBL document CHEMBL3507680, “University of Dundee, Gates Library screen for HepG2 cell viability”.

Assay: Human HepG2 cell viability assay in 384 well format
Assay type: toxicity, cell-based
Set-up: dose 125 nL, time 70.5 hour; concentration not given beside the values
Conditions: HepG2 cells, read-out: Inhibition

Structure (SMILES) | cytotoxicity at 70.5 h [%]
CN(Cc1cc(C[C@@H]2C[C@H](N)C2(C)C)no1)c1ccccc1 | -5.24
O=C1NC[C@H]2CN(Cc3nccs3)CCN12 | -8.47
COCCOC[C@]1(CNC(=O)c2ccc(OC)cc2)C[C@@H](O)[C@@H](O)C1 | -4.22
Cn1ccnc1CNC[C@H]1Cn2cc(-c3ccccc3)nc2CO1 | -8.01
Cc1ccc(-c2cn3c(n2)CO[C@@H](CNCc2nccn2C)C3)cc1 | -5.86
Cc1ccc2c(c1)nc1n2[C@@H](CNC(=O)c2cccnc2)COC1 | -4.19
Cc1cccc2c1nc1n2[C@@H](CNC(=O)c2ccccn2)COC1 | -1.91
CS(=O)(=O)c1ccc(O[C@H]2COCCN(Cc3ccncc3)C2)cc1 | -6.23
COCC(=O)N[C@H](C)c1onc(-c2ccc(Cl)cc2)c1C(=O)O | -1.96
COCC(=O)N[C@H](C)c1onc(-c2ccc(OC)cc2)c1C(=O)O | 10.8
COc1ccc(-c2noc([C@@H](C)NC(=O)NC(C)(C)C)c2C(=O)O)cc1 | -10.4
COCC(=O)N[C@H](C)c1c(-c2ccc(OC)cc2)noc1C(=O)O | -16.4
CC(=O)N[C@H](C)c1c(-c2ccc(Cl)cc2)noc1C(=O)O | -6.07
Cc1ccc2c(c1)nc1n2[C@@H](CNC(=O)c2cncnc2)COC1 | -2.41
COc1ccc2c(c1)nc1n2[C@@H](CNC(=O)c2cccnc2)COC1 | 4.29
c1cc(-c2noc([C@@H]3CCCN3CC3CC3)n2)cc(N2CCCC2)n1 | -11.8
CC(C)CNC[C@H]1COCc2nc3cccnc3n21 | 10
CS(=O)(=O)N1C[C@@H]2OCC(=O)N(CC3CCC3)[C@@H]2C1 | -6.88
O=C(N1CCOCC1)N1CCOC[C@H](Oc2ccc(C(F)(F)F)cc2)C1 | -5.44
COCCNC(=O)c1cc(S(=O)(=O)N2CCCCC2)cs1 | -13.8
CCS(=O)(=O)N(C)c1ccc(C(=O)N2CCCC(C)C2)cc1 (configuration not stated) | -7.21

Structure (SMILES) | cytotoxicity at 70.5 h [%]
CC(C)C(=O)N1CCN(C(=O)c2cscn2)[C@H]2CS(=O)(=O)C[C@H]21 | -2.25
Cc1ccccc1CS(=O)(=O)NCCCN1CCCCC1 | -4.67
O=C(c1ccccc1-c1ccccc1)N1CCOC2(CNCCOC2)C1 (configuration not stated) | -11.1
COCCNS(=O)(=O)c1ccc2c(c1)CCN(C(=O)c1cncn1C)C2 | -5.18
COc1ccc(Cc2nnc(SC)o2)cc1OC | -2.03
NC(=O)C1CCN(C(=O)c2cccc(CN3CCOCC3)c2)CC1 | 8.77
C[C@H](O)CNC(=O)c1cnc(-c2ccccc2)nc1O | -4.5
O=C(O)[C@]12CCCN(Cc3ccncc3)[C@@H]1CCN(c1cnccn1)C2 | 8.46
NC(=O)C1CCN(c2nc3nccc(-c4ccccc4)c3c(=O)[nH]2)CC1 | -13.2
CN1CCC(Oc2ccc(NC(=O)c3ccccc3Br)cc2)CC1 | -7.15
CN(C)C(=O)Cc1ccc(NC(=O)NC2CCCCC2)cc1 | -10.4
Cc1nn(-c2ccccc2)c2c1C(c1ccc(C(=O)O)cc1)CC(=O)N2 (configuration not stated) | -3.05
CCC(NC(=O)C1CCN(S(C)(=O)=O)CC1)c1ccc(OC)c(C)c1 (configuration not stated) | -9.2
Cc1cc(=O)n(CC(=O)Nc2ccc(C(N)=O)cc2)nc1C | -4.34
Cc1nc(N2CCN(C(=O)C(C)(C)C)CC2)cc(-n2cnc(C)c2C)n1 | 13
N#Cc1ccc(C2CC(=O)Nc3c2cnn3C2CCCC2)cc1 (configuration not stated) | -2.74
CCNC(=O)[C@@H]1CCCN1[C@@H](C(=O)NC)c1ccccc1OC | -8.29
CNC(=O)[C@@H](c1ccccc1OC)N1CCC[C@H]1C(=O)N1CC[C@@H](O)C1 | -3.98
COCCOC[C@]1(CNCc2ccc(F)cc2)C[C@@H](O)[C@@H](O)C1 | 11.8
C[C@@H](NCc1cccc(Cl)c1)c1onc(-c2ccc(F)cc2)c1C(=O)O | -2.58
CC(C)CC(=O)N[C@H](C)c1c(-c2ccc(Cl)cc2)noc1C(=O)O | -7.33
